Each structure is given as a SMILES string.

In this assay the test system is glucocorticoid receptor function. Kind of assay: one or more of the above assays (GR binding and glucocorticoid receptor cell assays: aromatase, IL-6, TAT, MMTV-Luc, IL-8, ICAM-Luc). The class given is cell-based. The following applies: assay not specified per compound.

`CC(C)(CC(O)(Cc1cc2cc(Cl)ncc2[nH]1)C(F)(F)F)c1cc(Cl)cc2c1OCC2` (centres unmarked) [4-(5-Chloro-2,3-dihydrobenzofuran-7-yl)-2-(5-chloro-1H-pyrrolo[2,3-c]pyridin-2-ylmethyl)-1,1,1-trifluoro-4-methylpentan-2-ol]: the “activity as agonists of the glucocorticoid receptor function in one or more of the above assays” value (from here on “activity as agonists”) is on record as “potent agonists”.
As for `CC(C)(CC(O)(Cc1cc2cc(-c3cccc(C#N)c3)ccc2[nH]1)C(F)(F)F)c1cc(F)cc2c1OCC2` (centres unmarked) [3-{2-[4-(5-Fluoro-2,3-dihydrobenzofuran-7-yl)-2-hydroxy-4-methyl-2-trifluoromethylpentyl]-1H-indol-5-yl}benzonitrile], the “activity as agonists” value is “potent agonists”.
For `CC(C)(CC(O)(Cc1cc2cc(N3CCOCC3)ncc2[nH]1)C(F)(F)F)c1cccc(-c2cncnc2)c1` (centres unmarked) [1,1,1-Trifluoro-4-methyl-2-(5-morpholin-4-yl-1H-pyrrolo[2,3-c]pyridin-2-ylmethyl)-4-(3-pyrimidin-5-ylphenyl)pentan-2-ol] the value was “potent agonists”; for `Cc1c(CC(O)(CC(C)(C)c2cc(-c3cccnc3)ccc2O)C(F)(F)F)[nH]c2cnccc12` (centres unmarked) [4-Pyridin-3-yl-2-[4,4,4-trifluoro-3-hydroxy-1,1-dimethyl-3-(3-methyl-1H-pyrrolo[2,3-c]pyridin-2-ylmethyl)butyl]phenol], “potent agonists”.
Then `COc1ccc(-c2ccsc2)cc1C(C)(C)CC(O)(Cc1cc2cc(OC(C)C)ncc2[nH]1)C(F)(F)F` (centres unmarked) [1,1,1-Trifluoro-2-(5-isopropoxy-1H-pyrrolo[2,3-c]pyridin-2-ylmethyl)-4-(2-methoxy-5-thiophen-3-ylphenyl)-4-methylpentan-2-ol], with “potent agonists”; and `CCC(C)(C)C(O)(Cc1cc2ccncc2[nH]1)CC(C)(C)c1cc(F)ccc1OC` (centres unmarked) [2-(5-Fluoro-2-methoxyphenyl)-2,5,5-trimethyl-4-(1H-pyrrolo[2,3-c]pyridin-2-ylmethyl)heptan-4-ol], with “agonists”.
In the case of `Cc1ccc(F)cc1C(C)(C)CC(O)(Cc1cc2c(C)nccc2[nH]1)C(F)(F)F` (centres unmarked) [1,1,1-Trifluoro-4-(5-fluoro-2-methylphenyl)-4-methyl-2-(4-methyl-1H-pyrrolo[3,2-c]pyridin-2-ylmethyl)pentan-2-ol], the “activity as agonists” value is listed as “potent agonists”.
For `COc1ccc(F)cc1C(C)(C)CC(O)(Cc1cc2ccncc2[nH]1)C(C)C` (centres unmarked) [5-(5-Fluoro-2-methoxyphenyl)-2,5-dimethyl-3-(1H-pyrrolo[2,3-c]pyridin-2-ylmethyl)hexan-3-ol] the value was “agonists”; for `CC(C)(CC(O)(Cc1cc2nc(N3CCCC3)ncc2[nH]1)C(F)(F)F)c1cc(F)ccc1O` (centres unmarked) [4-Fluoro-2-[4,4,4-trifluoro-3-hydroxy-1,1-dimethyl-3-(2-pyrrolidin-1-yl-5H-pyrrolo[3,2-d]pyrimidin-6-ylmethyl)butyl]phenol], “potent agonists”; for `COc1ccc(F)cc1C(C)(C)CC(O)(Cc1cc2c(C#N)cccc2[nH]1)C(F)(F)F` (centres unmarked) [2-[4-(5-Fluoro-2-methoxyphenyl)-2-hydroxy-4-methyl-2-trifluoromethylpentyl]-1H-indole-4-carbonitrile], “potent agonists”.
For `COc1ccc(F)cc1C(C)(C)CC(O)(Cc1cc2nc(N3CCCC3)ncc2[nH]1)C(F)(F)F` (centres unmarked) [1,1,1-Trifluoro-4-(5-fluoro-2-methoxyphenyl)-4-methyl-2-(2-pyrrolidin-1-yl-5H-pyrrolo[3,2-d]pyrimidin-6-ylmethyl)pentan-2-ol] the value was “potent agonists”.

(Values after patent publication US8741897B2, “Glucocorticoid mimetics, methods of making them, pharmaceutical compositions and uses thereof” (Boehringer Ingelheim Pharmaceuticals Inc., priority 2003, dated 2014).)
